Assay results reported in patent US9487489B2, “Halogen-substituted pyrazole derivatives as pest-control agents” (BAYER CROPSCIENCE AKTIENGESELLSCHAFT, priority 2013, dated 2016).
One block for each compound: values may come before it.

What was measured:
[1] = logP determination by HPLC on a reversed-phase column (C18), EEC Directive 79/831 Annex V.A8; format: physicochemical
Method: (§1) ^a) Note regarding the determination of the logP values and mass detection: The determination of the given logP values was carried out in accordance with EEC Directive 79/831 Annex V.A8 by HPLC (High Performance Liquid Chromatography) on a reversed-phase column (C18). Agilent 1100 LC system; 50*4.6 Zorbax Eclipse Plus C18 1.8 micron; mobile phase A: acetonitrile (0.1% formic acid); mobile phase B: water (0.09% formic acid); linear gradient from 10% acetonitrile to 95% acetonitrile in 4.25 min, then 95% acetonitrile for a further 1.25 min; oven temperature 55° C.; flow rate: 2.0 ml/min. Mass detection is carried out via an Agilend MSD system.
as §1, with “^*)” for “^a)”

[2] = tested on: larvae of the mustard beetle (Phaedon cochleariae); test: Phaedon cochleariae spray test (PHAECO); format: in vivo; conditions: Chinese cabbage leaf discs, after 7 days
Method: H. Phaedon cochleariae-spray Test (PHAECO)
Solvents: 78.0 parts by weight of acetone
(§2) • 1.5 parts by weight of dimethylformamide Emulsifier: alkylaryl polyglycol ether
(§3) To produce a suitable preparation of active compound, 1 part by weight of active compound is dissolved using the stated parts by weight of solvent and made up with water comprising an emulsifier concentration of 1000 ppm until the desired concentration is reached. To produce further test concentrations, the preparation is diluted with emulsifier-containing water.
After 7 days, the efficacy in % is determined. 100% means that all of the beetle larvae have been killed; 0% means that none of the beetle larvae have been killed.

[3] = tested on: caterpillars of the armyworm (Spodoptera frugiperda); test: Spodoptera frugiperda spray test (SPODFR); format: in vivo; conditions: application rate 500 g/ha; maize leaf discs; after 7 days
Method: I. Spodoptera frugiperda-spray Test (SPODFR)
(§4) Solvent: 78.0 parts by weight of acetone
as §2, §3
Leaf discs of maize (Zea mays) are sprayed with an active compound preparation of the desired concentration and, after drying, populated with caterpillars of the armyworm (Spodoptera frugiperda).
After 7 days, the efficacy in % is determined. 100% means that all of the caterpillars have been killed; 0% means that none of the caterpillars have been killed.

[4] = tested on: greenhouse red spider mite (Tetranychus urticae); test: Tetranychus urticae spray test, OP-resistant (TETRUR); format: in vivo; conditions: application rate 500 g/ha; bean leaf discs; after 6 days
Method: J. Tetranychus urticae-spray Test, OP-Resistant (TETRUR)
as §4, §2, §3
Discs of bean leaves (Phaseolus vulgaris) which are infested by all stages of the greenhouse red spider mite (Tetranychus urticae) are sprayed with an active compound preparation of the desired concentration.
After 6 days, the efficacy in % is determined. 100% means that all of the spider mites have been killed; 0% means that none of the spider mites have been killed.

[5] = tested on: adult cat fleas (Ctenocephalides felis); test: Ctenocephalides felis in vitro contact test with adult cat fleas (T1); conditions: after 48 h
Method: T1. Ctenocephalides felis—in vitro Contact Tests with Adult Cat Fleas
For the coating of the test tubes, initially 9 mg of active compound are dissolved in 1 ml of acetone p.a. and then diluted with acetone p.a. to the desired concentration. By turning and rocking on an orbital shaker (2 h of rocking rotation at 30 rpm), 250 μl of the solution are distributed homogeneously on the internal walls and the floor of a 25 ml test tube. At 900 ppm active compound solution and 44.7 cm^2 internal surface, an area dose of 5 μg/cm^2 is achieved for homogeneous distribution.
After evaporation of the solvent, the tubes are populated with 5-10 adult cat fleas (Ctenocephalides felis), sealed with a perforated plastic lid and incubated in a horizontal position at room temperature and ambient humidity. After 48 h, the efficacy is determined. To this end, the test tubes are stood upright and the fleas are knocked to the floor of the tube. Fleas which remain motionless on the floor or move in an uncoordinated manner are considered to be dead or moribund.
An efficacy of 100% means that all fleas were dead or moribund. 0% efficacy means that none of the fleas had been damaged.

[6] = HPLC, reversed-phase C18, acetonitrile (0.1% formic acid)/water (0.09% formic acid) gradient
[7] = HPLC on reversed-phase column (C18), acetonitrile/water with formic acid, EEC Directive 79/831 Annex V.A8

Structure (SMILES): Cn1nc(C(F)(F)C(F)(F)F)c(C(F)(F)F)c1-n1cnc(-c2cccc(C(=O)NC3CC3)c2)n1 [Ie-3]
logP [1, 6]: 3.50

Structure (SMILES): Cn1nc(C(F)(F)C(F)(F)F)c(C(F)(F)F)c1-n1cc(-c2ccc(Cl)c(C(=O)Nc3ccc(F)cc3)c2)cn1 [Ic-209]
logP [1, 7]: 4.53

Structure (SMILES): Cn1nc(C(F)(F)F)c(C=O)c1-n1cc(-c2ccc(Cl)c(C(=O)NC3CC3)c2)cn1 [Ic-52]
logP [1, 7]: 2.67
efficacy in % ([2]; application rate 500 g/ha): 100%

Structure (SMILES): Cn1nc(C(F)(F)C(F)(F)F)c(C(F)(F)F)c1-n1cnc(-c2cccc(C(=O)NCc3cccs3)c2)n1 [Ie-4]
logP [1, 6]: 4.05
efficacy in % ([2]; application rate 100 g/ha): 100%

Structure (SMILES): Cn1nc(C(F)(F)C(F)(F)F)c(C(F)(F)F)c1-n1cc(-c2cccc(C(=O)NC3(C#N)CC3)n2)cn1 [Ic-105]
efficacy in % ([2]; application rate 500 g/ha): 100%
efficacy in % [3]: 100%
efficacy in % [4]: 90%

Structure (SMILES): Cn1nc(C(F)(F)C(F)(F)F)c(C(F)(F)F)c1-n1cnc(-c2ccc(Cl)c(C(=O)NC3CC3)c2)n1 [Ie-2]
logP [1, 6]: 3.72

Structure (SMILES): Cn1nc(C(F)(F)C(F)(F)F)c(C(F)(F)F)c1-n1cc(-c2ccc(Cl)c(C(=O)NC3CC3)c2)c(N)n1 [Ic-192]
logP [1, 7]: 3.35
efficacy in % ([2]; application rate 100 g/ha): 100%

Structure (SMILES): Cn1nc(C(F)(F)F)c(C(=O)NC2CC2)c1-n1cc(-c2ccc(Cl)c(C(=O)NC3(C#N)CC3)c2)cn1 [Ic-101]
logP [1, 7]: 2.32

Structure (SMILES): Cn1nc(C(F)(F)C(F)(F)F)c(C(F)(F)F)c1-n1cc(-c2ccc(Cl)c(C(=O)NC3(C#N)CC3)c2)c(N)n1 [Ic-191]
logP [1, 7]: 3.3
efficacy in % ([2]; application rate 100 g/ha): 100%

Structure (SMILES): Cn1nc(C(F)(F)C(F)(F)F)c(C(F)(F)F)c1-n1cc(-c2ccc(C(F)(F)F)c(C(=O)NC3CC3)c2)cn1 [Ic-196]
logP [1, 7]: 3.96

Structure (SMILES): CCN(C(=O)c1cc(-c2cnn(-c3c(C(F)(F)F)c(C(F)(F)C(F)(F)F)nn3C)c2)ccc1Cl)C1CC1 [Ic-211]
efficacy (dead or moribund fleas) ([5]; application rate 1 μg/cm^2): 100%
efficacy (dead or moribund fleas) ([5]; application rate 5 μg/cm^2): 100%

Structure (SMILES): Cn1nc(C(F)(F)F)c(CCl)c1-n1cc(-c2ccc(Cl)c(C(=O)NC3CC3)c2)cn1 [Ic-114]
logP [1, 7]: 3.12

Structure (SMILES): Cn1nc(C(F)(F)C(F)(F)F)c(C(F)(F)F)c1-n1cc(-c2ccc(Cl)c(C(=O)Nc3nn[nH]n3)c2)cn1 [Ic-144]
efficacy (dead or moribund fleas) ([5]; application rate 1 μg/cm^2): 100%
efficacy (dead or moribund fleas) ([5]; application rate 5 μg/cm^2): 100%

Structure (SMILES): C=CCN(C(=O)c1cc(-c2cnn(-c3c(C(F)(F)F)c(C(F)(F)C(F)(F)F)nn3C)c2)ccc1Cl)C1(C#N)CC1 [Ic-206]
logP [1, 7]: 4.44

Structure (SMILES): Cn1nc(C(F)(F)C(F)(F)F)c(C(F)(F)F)c1-n1cnc(-c2cccc(C(=O)NC3(C(N)=S)CC3)c2)n1 [Ie-6]
logP [1, 6]: 3.29

Structure (SMILES): CSc1c(C(F)(F)C(F)(F)F)nn(C)c1-n1cc(-c2ccc(Cl)c(C(=O)NC3(C#N)CC3)c2)cn1 [Ic-194]
logP [1, 7]: 3.56

Structure (SMILES): Cn1nc(C(F)(F)F)c(C=NO)c1-n1cc(-c2ccc(Cl)c(C(=O)NC3(C#N)CC3)c2)cn1 (mixture of isomers) [Ic-98]
logP [1, 7]: 2.42

Structure (SMILES): Cn1nc(C(F)(F)C(F)(F)F)c(C(F)(F)F)c1-n1cc(-c2cc(C(=O)NC3(C#N)CC3)c(Cl)cc2F)cn1 [Ic-93]
efficacy in % ([2]; application rate 500 g/ha): 100%

Structure (SMILES): CC(NC(=O)c1cc(-c2cnn(-c3c(C(F)(F)F)c(C(F)(F)C(F)(F)F)nn3C)c2)ccc1Cl)C1CC1 (stereo not drawn) [Ic-207]
logP [1, 7]: 4.4

Structure (SMILES): Cn1nc(C(F)(F)C(F)(F)F)c(C(F)(F)F)c1-n1cc(-c2cncc(C(=O)NC3(C#N)CC3)n2)cn1 [Ic-179]
efficacy in % ([2]; application rate 500 g/ha): 100%

Structure (SMILES): Cc1c(-c2ccc(Cl)c(C(=O)NC3CC3)c2)c(C(F)(F)F)nn1-c1c(C(F)(F)F)c(C(F)(F)C(F)(F)F)nn1C [Ic-5]
logP [1, 7]: 4.60
efficacy in % ([2]; application rate 100 g/ha): 83%

Structure (SMILES): CN(C)CCNC(=O)c1cc(-c2cnn(-c3c(C(F)(F)F)c(C(F)(F)C(F)(F)F)nn3C)c2)ccc1Cl [Ic-138]
efficacy (dead or moribund fleas) ([5]; application rate 5 μg/cm^2): 80%

Structure (SMILES): Cn1nc(C(F)(F)F)c(C#N)c1-n1cc(-c2ccc(Cl)c(C(=O)NC3CC3)c2)cn1 [Ic-30]
logP [1, 7]: 2.97
efficacy in % ([2]; application rate 100 g/ha): 100%

Structure (SMILES): Cn1nc(C(F)(F)C(F)(F)F)c(C(F)(F)F)c1-n1cc(-c2ccc(Cl)c(C(=O)NCc3ncc[nH]3)c2)cn1 [Ic-146]
efficacy (dead or moribund fleas) ([5]; application rate 1 μg/cm^2): 80%
efficacy (dead or moribund fleas) ([5]; application rate 5 μg/cm^2): 80%

Structure (SMILES): Cn1nc(C(F)(F)C(F)(F)F)c(C(F)(F)F)c1-n1cnc(-c2cccc(C(=O)NC3(C#N)CC3)c2)n1 [Ie-7]
logP [1, 6]: 3.46

Structure (SMILES): Cn1nc(C(F)(F)C(F)(F)F)c(C(F)(F)F)c1-n1cnc(-c2cccc(C(=O)Nc3ccc(Cl)nc3)c2)n1 [Ie-5]
logP [1, 6]: 4.24
efficacy in % ([2]; application rate 100 g/ha): 100%

Structure (SMILES): CON=Cc1c(C(F)(F)F)nn(C)c1-n1cc(-c2ccc(Cl)c(C(=O)NC3CC3)c2)cn1 (mixture of isomers) [Ic-51]
logP [1, 7]: 3.15
efficacy in % ([2]; application rate 500 g/ha): 100%

Structure (SMILES): Cn1nc(C(F)(F)C(F)(F)F)c(C(F)(F)F)c1-n1cc(-c2ccc(C(F)(F)F)c(C(=O)NC3(C#N)CC3)c2)cn1 [Ic-203]
logP [1, 7]: 3.88

Structure (SMILES): Cn1nc(C(F)(F)C(F)(F)F)c(C(F)(F)F)c1-n1cc(-c2ccc(Cl)c(C(=O)Nc3ccon3)c2)cn1 [Ic-145]
efficacy (dead or moribund fleas) ([5]; application rate 1 μg/cm^2): 100%
efficacy (dead or moribund fleas) ([5]; application rate 5 μg/cm^2): 100%

Structure (SMILES): Cn1nc(C(F)(F)F)c(C=NO)c1-n1cc(-c2ccc(Cl)c(C(=O)NC3CC3)c2)cn1 (mixture of isomers) [Ic-50]
logP [1, 7]: 2.47

Structure (SMILES): Cn1nc(C(F)(F)C(F)(F)F)c(C(F)(F)F)c1-n1cc(-c2ccc(Cl)c(C(=O)NC3(C4CCC4)CC3)c2)cn1 [Ic-210]
logP [1, 7]: 4.77

Structure (SMILES): CCN(CC)C(=O)c1cc(-c2cnn(-c3c(C(F)(F)F)c(C(F)(F)C(F)(F)F)nn3C)c2)ccc1S(=O)(=O)NC1CC1 [Ic-197]
logP [1, 7]: 4.39

Structure (SMILES): Cn1nc(C(F)(F)C(F)(F)F)c(C(F)(F)F)c1-n1cc(-c2cc(C(=O)NC3CC3)c(F)c(S(N)(=O)=O)c2)cn1 [Ic-173]
efficacy in % ([2]; application rate 500 g/ha): 100%

Structure (SMILES): CN(C(=O)c1cc(-c2cnn(-c3c(C(F)(F)F)c(C(F)(F)C(F)(F)F)nn3C)c2)ccc1Cl)C1CC1 [Ic-199]
efficacy (dead or moribund fleas) ([5]; application rate 1 μg/cm^2): 100%
efficacy (dead or moribund fleas) ([5]; application rate 5 μg/cm^2): 100%

Structure (SMILES): Cn1nc(C(F)(F)F)c(C=O)c1-n1cc(-c2ccc(Cl)c(C(=O)NC3(C#N)CC3)c2)cn1 [Ic-102]
logP [1, 7]: 2.61

Structure (SMILES): CCN(C(=O)c1cc(-c2cnn(-c3c(C(F)(F)F)c(C(F)(F)C(F)(F)F)nn3C)c2)ccc1Cl)C1(C#N)CC1 [Ic-208]
logP [1, 7]: 4.33

Structure (SMILES): Cn1nc(C(F)(F)C(F)(F)F)c(C(F)(F)F)c1-n1cc(-c2cncc(C(=O)NC3CC3)n2)cn1 [Ic-178]
efficacy in % ([2]; application rate 100 g/ha): 100%

chromatographic logP [1]: 4
Structure (SMILES): Cn1nc(C(F)(F)C(F)(F)F)c(C(F)(F)F)c1-n1cnc(-c2ccc(Cl)c(C(=O)NCc3ccccc3)c2)c1 [Ib-1, N-Benzyl-2-chloro-5-{1-[1-methyl-3-(pentafluoroethyl)-4-(trifluoromethyl)-1H-pyrazol-5-yl]-1H-imidazol-4-yl}benzamide]
efficacy in % ([2]; application rate 100 g/ha): 83%

Structure (SMILES): CCCN(C(=O)c1cc(-c2cnn(-c3c(C(F)(F)F)c(C(F)(F)C(F)(F)F)nn3C)c2)ccc1Cl)C1(C#N)CC1 [Ic-204]
logP [1, 7]: 4.56

Structure (SMILES): CCC(=O)N(C(=O)c1cc(-c2cnn(-c3c(C(F)(F)F)c(C(F)(F)C(F)(F)F)nn3C)c2)ccc1Cl)C1(C#N)CC1 [Ic-205]
logP [1, 7]: 4.63

Structure (SMILES): Cn1nc(C(F)(F)F)c(C(=O)NC2CC2)c1-n1cc(-c2ccc(Cl)c(C(=O)NC3CC3)c2)cn1 [Ic-100]
logP [1, 7]: 2.31
